Measurements: patent US12070483B2, “Compositions and methods for treatment of acute lung injury” (THE TRUSTEES OF THE UNIVERSITY OF PENNSYLVANIA, priority 2018, dated 2024)
Each block holds one sequence with its values, some of them ahead of it.

Key:
NOX2 = experiment: ROS production (Amplex red) of isolated perfused mouse lung stimulated with angiotensin II; type: in vivo; settings: for ROS production by AngII-activated NOX2 in the isolated mouse lung: ex_vivo
Procedure: FIGS. 5A and 5B: PIP-2, incorporated within liposomes, was instilled intratracheally prior to lung isolation. FIG. 5A: Isolated lungs were perfused in a recirculating system with artificial medium. NOX2 activity was stimulated by addition of angiotensin II (Ang II). Amplex red along with horseradish peroxidase were added to the perfusate for detection of ROS production. Aliquots of perfusate were analyzed at intervals by spectrophotometry to determine oxidation of amplex red, indicating ROS production. Results are mean±SE for N=3-4. FIG. 5B: Mice were sacrificed at 6, 12, or 24 h after LPS administration ([…]) and lungs were perfused in situ for 15 min with saline solution containing a fluorophore (difluorofluorescein diacetate, DFFDA). Lungs then were homogenized and fluorescence of the lung homogenate was determined as an index of ROS production. Results for FIG. 5A & FIG. 5B are mean±SE for N=4. *P<0.05 vs corresponding LPS and LPS+PIP-2; § P<0.05 vs 12 h and 24 h LPS; ΔP<0.05 vs corresponding LPS.
FIG. 8: PLA2 inhibitory peptide (PIP-2) inhibits ROS production stimulated by angiotensin II (Ang II) in isolated perfused mouse lung. PIP-2 (2 μg/g body weight) was administered to intact wild type (WT) mice by the IV route. […] After 30 mins, lungs were isolated from anesthesized mice and perfused in a recirculating system with added Ang II ([…]) as a Nox2 activator and Amplex red plus horseradish peroxidase to detect perfusate ROS. WT basal lungs were not stimulated with Ang II. After a 15 min equilibration period (called zero time), aliquots were taken at 15 min intervals for analysis of fluorescence. Each plotted point represents the mean±SE for n=3. The lines were drawn by the least mean squares method. The mean rates of ROS […] calculated from the slope of each line are indicated in parentheses. *P<0.05 vs the other 3 slopes.
FIG. 10: Effect of liposome composition on delivery of PIP-2 to lungs after IV administration. […]
The effect of the PIPs on ROS production in control (untreated) lungs was determined in vitro with isolated perfused lungs. […] The basal rate of ROS production was evaluated with WT lungs that were perfused in the absence of AngII. […] Aliquots of perfusate were taken at 15 min intervals and analyzed by fluorescence for resorufin (λexcitation 568 nm, λemission 581 nm), the product of Amplex red oxidation. The rate of Amplex red oxidation was calculated and expressed as arbitrary fluorescence units (AFU) with normalization to mouse body wt. There was a low rate of Amplex red oxidation in the absence of HRP in the perfusate (˜7% of the AngII-stimulated fluorescence), indicating a non-ROS-mediated oxidation of the fluorophore; this value was subtracted to obtain the reported values.

[1] = tested on: C57Bl/6 mice, LPS-mediated lung injury; experiment: Acute lung injury after intratracheal LPS (5 μg/g), lungs evaluated at 24 h; type: in vivo, mouse; settings: for lung injury, peptide administered along with LPS (0 time): evaluated at 24 hours after LPS; for lung injury, peptide administered at 12-16 hours after LPS: sacrifice @ 24 hours
Procedure: The IT model of acute lung injury (ALI) as shown in Table 9 was used to test the effects of PIP-2. […] IV administration of PIP-2 was used to avoid a second ‘assault’ on the trachea. Mice were sacrificed at 24 hours and lungs were evaluated for injury as described in Table 9. Protection (%) against lung injury was calculated as [1−(injury with PIP-2−control)/(LPS alone−control)]. Results are mean±SE for n=4. *P<0.01 vs control. ^†P<0.01 vs no PIP, 24 hours.
To study the effect of PIP-2 administration on lung injury, mice were treated with LPS (5 μg/g body weight) given IT. […] PIP-2 (2 μg/g body weight in liposomes) was administered at 0, 12, or 16 h after LPS. We have shown previously that this dose of PIP-2 can inhibit lung aiPLA2 activity by ˜90% for at least 24 h. PIP-2 was given IT at time zero and IV at 12 or 16 h in order to avoid excessive damage to the trachea. Animals were sacrificed and lungs were examined at 24 h after LPS. All indices of lung injury, reflecting lung inflammation, alveolar-capillary barrier dysfunction, lung fluid accumulation, and tissue oxidative stress, were elevated in LPS-treated mice as compared to control (p<0.05). […] Since lung injury was present in lungs at 12 and 16 h after LPS, the normal values at 24 h in lungs from LPS treated mice given PIP-2 at 12 or 16 h can only mean that lungs were able to recover fully from their injury during the 8 to 12 h interval between the administration of PIP-2 and examination of the lungs.

recombinant hPrdx6 = molecular target: T1, recombinant hPrdx6 (Homo sapiens, UniProt P30041); experiment: aiPLA2 activity of recombinant human Prdx6 in presence of peptide; type: biochemical; settings: for aiPLA2 activity of human recombinant protein: Table 2, hPrdx6 only 92.0
T1 sequence (P30041 1-224): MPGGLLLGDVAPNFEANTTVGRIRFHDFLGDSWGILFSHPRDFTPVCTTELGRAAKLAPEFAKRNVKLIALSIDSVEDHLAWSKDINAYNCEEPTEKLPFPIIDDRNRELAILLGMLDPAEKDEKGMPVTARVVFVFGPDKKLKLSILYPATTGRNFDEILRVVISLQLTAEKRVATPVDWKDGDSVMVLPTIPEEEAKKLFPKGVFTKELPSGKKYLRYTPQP

[2] = LPS 5 μg/g IT, PIP-2 2 μg/g IV @12 hr, sacrifice at 24 hrs
[3] = LPS 5 μg/g IT, PIP-2 2 μg/g IV @16 h, sacrifice at 24 hrs
[4] = Control: PIP in liposomes IT, no LPS
[5] = Control: PIP in liposomes, no LPS
[6] = LPS 5 μg/g IT, PIP-4 2 μg/g IV @12 hr, sacrifice at 24 hrs
[7] = LPS 5 μg/g IT, PIP-4 2 μg/g IV @16 h, sacrifice at 24 hrs

Sequence: LHDFRHQIL (Inhibitory peptide.) [PIP-2]
inhibition of ROS production (NOX2; PIP-2 2 μg/g in liposomes IV, WT lungs, Ang II 50 μM): ~75% | ROS production by AngII-activated NOX2 in the isolated mouse lung (NOX2): inhibit ROS production | # of cells ([1]; LPS 5 μg/g IT, PIP-2 2 μg/g IT @0 hrs, sacrifice at 24 hrs, control 0.95, LPS 8.67): 0.92 ± 0.02 ×10^4/g wt | Wet/Dry lung weight ratio ([1]; LPS 5 μg/g IT, PIP-2 2 μg/g IT @0 hrs, sacrifice at 24 hrs, control 5.59, LPS 8.10): 5.50 ± 0.04 | Protein carbonyls ([1]; LPS 5 μg/g IT, PIP-2 2 μg/g IT @0 hrs, sacrifice at 24 hrs, control 5.6, LPS 16.9): 5.4 ± 0.1 nmol/mg prot | 8-Isoprostanes ([1]; LPS 5 μg/g IT, PIP-2 2 μg/g IT @0 hrs, sacrifice at 24 hrs, control 34, LPS 101): 31 ± 2 pmol/mg prot | protein ([1]; LPS 5 μg/g IT, PIP-2 2 μg/g IT @0 hrs, sacrifice at 24 hrs, control 75, LPS 164): 71 mg protein/g wt | TBARS ([1]; LPS 5 μg/g IT, PIP-2 2 μg/g IT @0 hrs, sacrifice at 24 hrs, control 75, LPS 381): 70 ± 2.1 pmol/mg prot. | 8-Isoprostanes [1, 2]: 38 ± 1 pmol/mg prot | # of cells [1, 2]: 1.45 ± 0.03 ×10^4/g wt | Protein carbonyls [1, 2]: 6.4 ± 0.2 nmol/mg prot | TBARS [1, 2]: 85 ± 5.2 pmol/mg prot. | Wet/Dry lung weight ratio [1, 2]: 5.95 ± 0.02 | protein [1, 2]: 84 ± 1.2 mg protein/g wt | 8-Isoprostanes [1, 3]: 40 ± 1 pmol/mg prot | # of cells [1, 3]: 1.43 ± 0.2 ×10^4/g wt | Protein carbonyls [1, 3]: 6.4 ± 0.3 nmol/mg prot | TBARS [1, 3]: 89 ± 9.3 pmol/mg prot. | Wet/Dry lung weight ratio [1, 3]: 6.19 ± 0.06 | protein [1, 3]: 82.0 ± 1.2 mg protein/g wt | protection against lung injury ([1]; PIP-2 at 12 or 16 hours after LPS, evaluated at 24 hours): 85-95% | lung injury, peptide administered along with LPS (0 time) [1]: completely prevented lung injury | protection against lung injury ([1]; evaluated at 24 hr after IT LPS, PIP-2 at 0, 12 or 16 h after LPS): > 75% | lung injury, peptide administered at 12-16 hours after LPS [1]: prevents further injury | aiPLA2 activity of human recombinant protein (recombinant hPrdx6): 29.9 nmol/min/mg prot. | aiPLA2 activity of human recombinant Prdx6 (recombinant hPrdx6; Table 3, hPrdx6 only 99.91): 26.18 nmol/min/mg prot.

aiPLA2 activity of human recombinant protein (recombinant hPrdx6): 32.3 nmol/min/mg prot.
Sequence: LYEIKHQIL (Inhibitory peptide.) [PIP-4]
ROS production by AngII-activated NOX2 in the isolated mouse lung (NOX2): inhibit ROS production | 8-Isoprostanes [1, 4]: 34 ± 1 pmol/mg prot | Protein carbonyls [1, 4]: 5.8 ± 0.2 nmol/mg prot | TBARS [1, 4]: 76 ± 2 pmol/mg prot. | # of cells [1, 5]: 0.96 ± 0.03 ×10^4/g wt | Wet/Dry lung weight ratio [1, 5]: 5.59 ± 0.02 | protein [1, 5]: 78 ± 2 μg protein/g wt | Wet/Dry lung weight ratio ([1]; LPS 5 μg/g IT, PIP-4 2 μg/g IT @0 hrs, sacrifice at 24 hrs, LPS alone 7.40): 6.1 ± 0.01 | # of cells ([1]; LPS 5 μg/g IT, PIP-4 2 μg/g IT @0 hrs, sacrifice at 24 hrs, LPS alone 8.5): 0.95 ± 0.02 ×10^4/g wt | Protein carbonyls ([1]; LPS 5 μg/g IT, PIP-4 2 μg/g IT @0 hrs, sacrifice at 24 hrs, LPS alone 16.9): 5.9 ± 0.3 nmol/mg prot | 8-Isoprostanes ([1]; LPS 5 μg/g IT, PIP-4 2 μg/g IT @0 hrs, sacrifice at 24 hrs, LPS alone printed 1.02 ± 3): 32 ± 2 pmol/mg prot | # of cells [1, 6]: 1.46 ± 0.25 ×10^4/g wt | Protein carbonyls [1, 6]: 6.4 ± 0.1 nmol/mg prot | protein [1, 6]: 85 ± 2 μg protein/g wt | # of cells [1, 7]: 1.44 ± 0.12 ×10^4/g wt | Protein carbonyls [1, 7]: 6.4 ± 0.1 nmol/mg prot | TBARS [1, 7]: 85 ± 2 pmol/mg prot. | Wet/Dry lung weight ratio [1, 7]: 6.12 ± 0.09 | protein [1, 7]: 83 ± 1 μg protein/g wt | lung injury, peptide administered along with LPS (0 time) [1]: prevents lung injury | lung injury, peptide administered at 12-16 hours after LPS [1]: prevents further injury
